Measurements: US20170190671A1, “BIS(ARYL)CATECHOL DERIVATIVES AS HERBICIDES” (E I DU PONT DE NEMOURS AND COMPANY, priority 2014, published 2017)

How the values were obtained:
Experiment in all cases: Test D postemergence
Assay type in all cases: in vivo
Conditions in all cases: scale 0 to 100
[1] = test system: bluegrass (annual bluegrass, Poa annua)
In short: (§1)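 Ratings of 0–100 reflect visual comparison with control plants at 14 to 21 days. For preemergence, compound was sprayed on silt loam just after sowing; for postemergence, on plants 2 to 18 cm in height.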

[2] = test system: wild mustard (Sinapis arvensis)
In short: as §1

[3] = test system: downy bromegrass (Bromus tectorum)
In short: as §1

[4] = test system: chamomile (scentless chamomile, Matricaria inodora)
In short: as §1

[5] = test system: wild radish (Raphanus raphanistrum)
In short: as §1

[6] = test system: field poppy (Papaver rhoeas)
In short: as §1

[7] = test system: canarygrass (Phalaris minor)
In short: as §1

[8] = test system: field violet (Viola arvensis)
In short: as §1

[9] = test system: spring wheat (Triticum aestivum)
In short: as §1

[10] = test system: Russian thistle (Salsola kali)
In short: as §1

[11] = test system: galium (catchweed bedstraw, Galium aparine)
In short: as §1

[12] = test system: wild buckwheat (Polygonum convolvulus)
In short: as §1

[13] = test system: green foxtail (Setaria viridis)
In short: as §1

[14] = test system: speedwell (bird's-eye speedwell, Veronica persica)
In short: as §1

[15] = test system: lambsquarters (Chenopodium album)
In short: as §1

kochia (Kochia scoparia) = test system: kochia (Kochia scoparia)
In short: as §1

[16] = test system: blackgrass (Alopecurus myosuroides)
In short: as §1

[17] = test system: pigweed (Amaranthus retroflexus)
In short: as §1

[18] = test system: oilseed rape (Brassica napus)
In short: as §1

[19] = test system: Italian ryegrass (Lolium multiflorum)
In short: as §1

[20] = test system: winter barley (Hordeum vulgare)
In short: as §1

Fc1cccc(Oc2ncc(C(F)(F)F)cn2)c1Oc1ncc(Cl)cn1 [Compound 42, 5-chloro-2-[2-fluoro-6-[[5-(trifluoromethyl)-2-pyrimidinyl]oxy]phenoxy]pyrimidine]
5: Plant response rating, Chamomile ([4]; 62 g ai/ha) | Plant response rating, Wheat, Spring ([9]; 31 g ai/ha) | Plant response rating, Wheat, Spring ([9]; 62 g ai/ha) | Plant response rating, Barley, Winter ([20]; 16 g ai/ha) | Plant response rating, Barley, Winter ([20]; 31 g ai/ha)
70: Plant response rating, Bluegrass ([1]; 125 g ai/ha) | Plant response rating, Mustard, Wild ([2]; 16 g ai/ha) | Plant response rating, Mustard, Wild ([2]; 31 g ai/ha) | Plant response rating, Canarygrass ([7]; 62 g ai/ha) | Plant response rating, Russian Thistle ([10]; 125 g ai/ha) | Plant response rating, Galium ([11]; 16 g ai/ha) | Plant response rating, Foxtail, Green ([13]; 125 g ai/ha) | Plant response rating, Lambsquarters ([15]; 16 g ai/ha)
20: Plant response rating, Blackgrass ([16]; 16 g ai/ha) | Plant response rating, Ryegrass, Italian ([19]; 16 g ai/ha)
10: Plant response rating, Russian Thistle ([10]; 16 g ai/ha) | Plant response rating, Russian Thistle ([10]; 31 g ai/ha) | Plant response rating, Foxtail, Green ([13]; 16 g ai/ha) | Plant response rating, Barley, Winter ([20]; 62 g ai/ha)
95: Plant response rating, Field Violet ([8]; 125 g ai/ha) | Plant response rating, Buckwheat, Wild ([12]; 62 g ai/ha) | Plant response rating, Lambsquarters ([15]; 125 g ai/ha) | Plant response rating, Oilseed Rape ([18]; 125 g ai/ha)
80: Plant response rating, Radish, Wild ([5]; 16 g ai/ha) | Plant response rating, Buckwheat, Wild ([12]; 31 g ai/ha) | Plant response rating, Speedwell ([14]; 62 g ai/ha) | Plant response rating, Speedwell ([14]; 125 g ai/ha)
15: Plant response rating, Chamomile ([4]; 125 g ai/ha) | Plant response rating, Wheat, Spring ([9]; 125 g ai/ha) | Plant response rating, Foxtail, Green ([13]; 31 g ai/ha) | Plant response rating, Barley, Winter ([20]; 125 g ai/ha)
90: Plant response rating, Radish, Wild ([5]; 125 g ai/ha) | Plant response rating, Field Violet ([8]; 62 g ai/ha) | Plant response rating, Galium ([11]; 62 g ai/ha) | Plant response rating, Lambsquarters ([15]; 62 g ai/ha)
65: Plant response rating, Canarygrass ([7]; 31 g ai/ha) | Plant response rating, Field Violet ([8]; 16 g ai/ha) | Plant response rating, Field Violet ([8]; 31 g ai/ha) | Plant response rating, Ryegrass, Italian ([19]; 125 g ai/ha)
30: Plant response rating, Bromegrass, Downy ([3]; 16 g ai/ha)
50: Plant response rating, Bluegrass ([1]; 16 g ai/ha) | Plant response rating, Bluegrass ([1]; 31 g ai/ha) | Plant response rating, Speedwell ([14]; 31 g ai/ha) | Plant response rating, Ryegrass, Italian ([19]; 31 g ai/ha)
0: Plant response rating, Chamomile ([4]; 16 g ai/ha) | Plant response rating, Chamomile ([4]; 31 g ai/ha) | Plant response rating, Wheat, Spring ([9]; 16 g ai/ha)
25: Plant response rating, Russian Thistle ([10]; 62 g ai/ha)
75: Plant response rating, Radish, Wild ([5]; 31 g ai/ha) | Plant response rating, Field Poppy ([6]; 31 g ai/ha) | Plant response rating, Canarygrass ([7]; 125 g ai/ha) | Plant response rating, Buckwheat, Wild ([12]; 16 g ai/ha) | Plant response rating, Blackgrass ([16]; 125 g ai/ha) | Plant response rating, Oilseed Rape ([18]; 16 g ai/ha) | Plant response rating, Oilseed Rape ([18]; 31 g ai/ha)
85: Plant response rating, Radish, Wild ([5]; 62 g ai/ha) | Plant response rating, Galium ([11]; 31 g ai/ha) | Plant response rating, Lambsquarters ([15]; 31 g ai/ha) | Plant response rating, Kochia (kochia (Kochia scoparia); 16 g ai/ha) | Plant response rating, Oilseed Rape ([18]; 62 g ai/ha)
55: Plant response rating, Field Poppy ([6]; 16 g ai/ha) | Plant response rating, Blackgrass ([16]; 31 g ai/ha)
40: Plant response rating, Bromegrass, Downy ([3]; 62 g ai/ha) | Plant response rating, Speedwell ([14]; 16 g ai/ha)
100: Plant response rating, Mustard, Wild ([2]; 62 g ai/ha) | Plant response rating, Mustard, Wild ([2]; 125 g ai/ha) | Plant response rating, Field Poppy ([6]; 62 g ai/ha) | Plant response rating, Field Poppy ([6]; 125 g ai/ha) | Plant response rating, Galium ([11]; 125 g ai/ha) | Plant response rating, Buckwheat, Wild ([12]; 125 g ai/ha) | Plant response rating, Kochia (kochia (Kochia scoparia); 31 g ai/ha) | Plant response rating, Kochia (kochia (Kochia scoparia); 62 g ai/ha) | Plant response rating, Kochia (kochia (Kochia scoparia); 125 g ai/ha) | Plant response rating, Pigweed ([17]; 16 g ai/ha) | Plant response rating, Pigweed ([17]; 31 g ai/ha) | Plant response rating, Pigweed ([17]; 62 g ai/ha) | Plant response rating, Pigweed ([17]; 125 g ai/ha)
35: Plant response rating, Bromegrass, Downy ([3]; 31 g ai/ha) | Plant response rating, Canarygrass ([7]; 16 g ai/ha)
60: Plant response rating, Bluegrass ([1]; 62 g ai/ha) | Plant response rating, Bromegrass, Downy ([3]; 125 g ai/ha) | Plant response rating, Foxtail, Green ([13]; 62 g ai/ha) | Plant response rating, Blackgrass ([16]; 62 g ai/ha) | Plant response rating, Ryegrass, Italian ([19]; 62 g ai/ha)
